Key:
[1] = test system: 6/50 antibody; assay: Cross-reactivity of 6/50 antibody with OA analogues in competitive ELISA (FIG. 9); type: binding, mouse; conditions: toxins in 40% MEOH
Method: FIG. 9A Assay wells were coated with OA and incubated with a fixed concentration of 6/50 IgG and varying amounts of each toxin in 40% MEOH.
FIG 9B & 9C Assay wells were coated with purified antiidiotypic antibody (1/59) F(ab')2 fragments (5 μg/ml) and incubated with a fixed concentration of mAb 6/50 (100 ng/ml) and varying amounts of OA analogues in 40% MEOH.
In FIG. 9A, the assay wells were coated with OA and incubated with a fixed concentration of 6/50 IgG and varying amounts of each toxin in 40% MEOH. Bound antibody was detected with HRP-conjugated anti-mouse IgG. Toxins used in this competitive ELISA were generously donated by Dr. Takeshi Yasumoto (Tohoku University, Japan).
For FIG. 9B and 9C, the assay wells were coated with purified anti-idiotypic (1/59) F(ab')2 (5μg/ml) and incubated with a fixed concentration of antibody 6/50 (100 ng/ml) and varying amounts of okadaic acid analogues in 40% MEOH. Bound 6/50 IgG was detected with HRP-conjugated anti-mouse IgG Fc fragment specific antisera.

[2] = test system: F(ab')2 fragments of 6/50 IgG; assay: Competition ELISA, Example II: free OA versus 1/59 IgG for binding to solid-phase 6/50 F(ab')2; parameters: species or system mouse; conditions: free OA 0-10 μg/ml in 10% MeOH, 1/59 500 ng/ml
Method: In the reverse assay, 96-well microtiter plates are coated with 100 μl of 10 μg/ml of F(ab')2 fragments of 6/50 IgG in 0.05M sodium carbonate bicarbonate buffer, pH 9.6, overnight at 4° C. The unbound F(ab')2 fragments are washed off with Tris-buffered saline and the remaining binding sites are saturated with 200 μl of 1% powdered-milk in Tris-saline (TS-MILK) for one hour at 37° C. After washing, the wells are incubated simultaneously with 50 μl of a fixed amount of anti-idiotypic IgG 1/59 (500 ng/ml) and 50 μl of free OA diluted in 10% methanol (MeOH) at increasing concentrations (0-10 μg/ml) for one hour at 37° C. After the unbound antibody and antigen are washed off, 100 μl of a peroxidase conjugated goat anti-mouse IgG Fc-fragment-specific antiserum is added for one hour at 37° C.
The colorimetric reaction is developed upon the addition of 0.03% H2 O2 in 0.1 M sodium citrate buffer, pH 7.0, containing 0.1% OPD. The reaction is stopped with 3 N H2 SO4 and the color intensity measured at a wavelength of 492 nm using a BioRad® ELISA reader.

[3] = target: T1, protein phosphatase-2A (PP2A) catalytic subunit (Oryctolagus cuniculus, UniProt P67777); assay: Standard phosphorylase a phosphatase assay, PP2A; type: biochemical, rabbit; conditions: standard commercial preparation of okadaic acid; read-out: IC50 for PP2A inhibition
T1 construct: Homogeneous PP-1 and -2A catalytic subunits are purified from rabbit skeletal muscle; from tissue; host or cells: rabbit skeletal muscle
T1 sequence (P67777 whole entry): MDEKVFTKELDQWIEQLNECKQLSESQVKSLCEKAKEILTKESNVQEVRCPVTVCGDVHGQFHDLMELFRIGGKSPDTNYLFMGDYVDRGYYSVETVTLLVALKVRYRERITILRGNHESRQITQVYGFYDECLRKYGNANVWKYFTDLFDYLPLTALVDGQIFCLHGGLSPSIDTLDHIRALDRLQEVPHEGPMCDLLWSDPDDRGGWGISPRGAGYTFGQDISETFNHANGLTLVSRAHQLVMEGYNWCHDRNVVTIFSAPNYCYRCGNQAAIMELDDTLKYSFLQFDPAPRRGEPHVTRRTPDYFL
Method: (§1) The biological activity of OA was assayed by the ability of this toxin to inhibit dephosphorylation of ^32 P-radiolabelled glycogen phosphorylase (E.C. 2.4.1.1) by protein phosphatases (E.C. 3.1.3.16) in the standard phosphorylase phosphatase assay.
(§2) Phosphorylase (50 mM) is dialyzed extensively against NaF (15 mM) to block endogenous phosphatase activity. The protein is diluted to 3 mg/ml (30 pmol/μl ) in Tris HCl (50 mM, pH 7.0) containing ethylenediamine tetra-acetic acid (EDTA, 0.1 mM), bovine serum albumin (1 mg/ml), 2-mercaptoethanol (0.2% v/v) and caffeine (15mM). An incubation comprising 10 μl protein phosphatase-1 or -2A (PP2A, 1 mU/ml in Tris HCl, pH 7.0) and 10 μl phosphatase inhibitor (in Tris HCl, pH 7.0) is carried out for 10 minutes at 30° C. An aliquot (10 μl) of phosphorylase (30 pmol/μl, specific radioactivity >0.6×10^6 dpm/nmol) is added to start the reaction, which is terminated after 10 minutes by adding 200 μl trichloroacetic acid (20% w/v,TCA). The suspension is vortexed, stood on ice for 1 minute and centrifuged at 15,000g for 2 minutes. An aliquot (200 μl) of supernatant is added to 1 ml scintillant and counted. One milliunit(mU) of protein phosphatase activity releases 1 nmol phosphate from phosphorylase per minute. […]

[4] = test system: 6/50 IgG; assay: Competitive ELISA, Example IV: solid-phase OA versus free OA for binding to 6/50 IgG; parameters: species or system mouse; conditions: OA standards 0-30 ng/ml in 10% MeOH
Method: This assay is based on the competition between solid-phase attached OA and free OA (analyte) for binding to a limited number of binding sites on 6/50 IgG in solution.
Thus, 96-well microtiter plates are coated with 100 μl of OA-OVAL (10 μg/ml) in 0.05M sodium carbonate bicarbonate buffer, pH 9.6, overnight at 4° C. The unbrund OA-OVAL is washed off with Tris-buffered saline and the remaining binding sites are saturated with 200 μl of TS-MILK for one hour at 37° C. After washing, the wells are incubated simultaneously with 50 μl of OA standards (0-30 ng/ml) diluted in 10% MeOH and applied in the presence of 50 μl of limiting amounts of 6/50 IgG for one hour at 37° C. After the unbound antibody and antigen are washed off, 100 μl of a peroxidase conjugated goat anti-mouse IgG antiserum diluted in TS-MILK is added and incubated for one hour at 37° C.
Ihe colorimetric reaction is developed upon the add:tion of 0.03% H2 O2 in 0.1 M sodium citrate buffer, pH 7.0, containing 0.1% OPD. The reaction is stopped with 3 N H2 SO4 and the color intensity measured at a wavelength of 492 nm using a BioRad ELISA reader.

[5] = Solubility of OA; type: physicochemical
Source text: It is obvious that methanol has a deleterious effect on 6/50 IgG binding to OA since the sensitivity of OA detection in the presence of 40% MeOH drops considerably when compared with 10% MeOH content. The addition of 10% MeOH seems to be the optimal for this assay. Absence of MeOH decreases OA solubility and thus the slope of the standard curve.

[6] = target: protein phosphatase-1 (PP1) catalytic subunit; assay: Standard phosphorylase a phosphatase assay, PP1; type: biochemical, rabbit; conditions: standard commercial preparation of okadaic acid; read-out: IC50 for PP1 inhibition
Method: as §1, §2

Row | Compound | binding to 6/50 antibody relative to okadaic acid (cross-reactivity) [1] | inhibition of 1/59 IgG binding to solid-phase bound 6/50 IgG F(ab')2 [2] | IC50 [3] | competition with solid-phase fixed OA for binding to 6/50 [4] | solubility [5] | IC50 [6]
1 | C=C1C(O)C2OC3(CCC(C=CC(C)C4CC(C)=CC5(OC(CC(C)(O)C(=O)O)CCC5O)O4)O3)CCC2OC1C(O)CC(C)C1OC2(CCC1C)OCCCC2C (stereo not shown) [DTX-1, 35-methyl-okadaic acid] | significantly lower affinity | – | – | – | – | –
2 | C=C1[C@@H](O)[C@@H]2O[C@]3(CC[C@H](/C=C/[C@@H](C)[C@@H]4CC(C)=C[C@@]5(O[C@H](C[C@@](C)(O)C(=O)O)CC[C@H]5O)O4)O3)CC[C@H]2O[C@@H]1[C@@H](O)C[C@H](C)[C@H]1O[C@@]2(CCCCO2)CC[C@H]1C [okadaic acid] | – | clearly inhibited | 0.2 nM | dose-dependent manner | only soluble in the presence of organic solvents | 19 nM
3 | C=C1C(C(CC(C)C2OC3(CCCCO3)CCC2C)OC(C)=O)OC2CCC3(CCC(C=CC(C)C4CC(C)=CC5(OC(CC(C)(OC(C)=O)C(=O)O)CCC5OC(C)=O)O4)O3)OC2C1OC(C)=O (stereo not shown) [tetra acetyl okadaic acid] | significantly lower affinity | – | – | – | – | –
